Results as given in patent US12453712B2, “Antitumoral use of cabazitaxel” (Sanofi Mature IP, priority 2009, dated 2025).

Key:
[1] = test system: cancers that are resistant to hormone deprivation; conditions: docetaxel in combination with estramustine or prednisone; cited from earlier work
[2] = Same clinical study: adverse reactions, hematologic abnormalities, treatment discontinuation, delays and dose reductions; assay type: in vivo, human
Experimental: (§1) A clinical study was performed wherein patients received either treatment with cabazitaxel or the reference treatment based on mitoxantrone each combined with prednisone or prednisolone.
(§2) More specifically, patients over 18 years of age with metastatic castration resistant metastatic prostate cancer either measurable by RECIST criteria or non-measurable disease with rising PSA levels or appearance of new lesions, ECOG (Eastern Cooperative Oncology Group) performance stage 0-2, and adequate organ function (patients had to have neutrophils >1,500 cells/mm^3, platelets >100,000 cells/mm^3, hemoglobin >10 g/dL, creatinine <1.5×upper limit of normal (ULN), total bilirubin <1×ULN, AST <1.5×ULN, and ALT <1.5×ULN) who had had prior hormone therapy, chemotherapy, and radiotherapy, but had progressive during or after docetaxel treatment (cumulative dose ≥225 mg/m^2) were randomized to 10 mg/day of prednisone with either mitoxantrone 12 mg/m^2 or cabazitaxel 25 mg/m^2, both administered every 3 weeks.
(§3) Patients with a history of congestive heart failure, or myocardial infarction within the last 6 months, or patients with uncontrolled cardiac arrhythmias, angina pectoris, and/or hypertension were not included in the study.
(§4) 720 patients were planned to be included in the clinical study: 360 in each cabazitaxel+prednisone and mitoxantrone+prednisone group. Seven hundred and fifty-five patients (755) (median age 68; 84% white) were actually enrolled, 378 in the cabazitaxel and prednisone/prednisolone group and 377 in the mitoxantrone and prednisone/prednisolone group. The maximal number of treatment cycles was 10 for cabazitaxel and 10 for mitoxantrone. The median number of treatment cycles was 6 for cabazitaxel and 4 for mitoxantrone. The median prior dose of docetaxel treatment was 576 mg/m^2 for the cabazitaxel group and 529 mg/m^2 for the mitoxantrone group. Median follow-up was 12.8 months.

[3] = test system: castration resistant metastatic prostate cancer; test: Randomized clinical study of cabazitaxel vs mitoxantrone, each with prednisone or prednisolone: efficacy; assay type: in vivo, human; conditions: intention-to-treat
Experimental: as §1, §2, §3, §4
The measurements of the results are performed via the same tests as at inclusion. MRI and spiral computed tomographic (CT) scans are preferably used.
The results are evaluated according to the following criteria (cf RECIST guideline): • overall survival (OS): the time from inclusion to the study to the date of death complete response (CR): disappearance of the lesions • partial response (PR): at least 30% reduction of the largest diameter of the lesion progression (PD): at least 20% increase in the sum of the largest diameter of the lesion or appearance of one or more new lesions • stable disease (SD): reduction of the tumour insufficient to be included in PR and increase of the tumour insufficient to be included in PD.
The confirmations of the measurements are made at least 4 weeks after the response criterion has been established for the first time.
The progression-free survival (PFS) is the time from inclusion in the study and the date of progression or death when the progression is either an increase of the PSA, or of the tumour, or of the pain.

[4] = human, in vivo, listed as Mitoxantrone
[5] = percent of patients, laboratory values, cabazitaxel: n = 369, mitoxantrone: n = 370

CC(=O)O[C@@]12CO[C@@H]1C[C@H](O)[C@@]1(C)C(=O)[C@H](O)C3=C(C)[C@@H](OC(=O)[C@H](O)[C@@H](NC(=O)OC(C)(C)C)c4ccccc4)C[C@@](O)([C@@H](OC(=O)c4ccccc4)[C@H]21)C3(C)C [docetaxel]
improvement of survival [1]: 2.4 months

O=C1c2c(O)ccc(O)c2C(=O)c2c(NCCNCCO)ccc(NCCNCCO)c21 [mitoxantrone, reference compound]
Rates of febrile neutropenia ([2]; Example 1): 1.3%
Dose reductions, cycles (%) ([2]; human, in vivo): 5.1%
Dose reductions, no. of cycles ([2]; human, in vivo): 88
Treatment delays >9 days, cycles (%) ([2]; human, in vivo): 1.6%
Treatment delays >9 days, no. of cycles ([2]; human, in vivo): 28
Treatment delays ≤9 days, cycles (%) ([2]; human, in vivo): 6.3%
Treatment delays ≤9 days, no. of cycles ([2]; human, in vivo): 110
Dose reductions, cycles (%) [2, 4]: (5.1) %
Treatment delays >9 days, cycles (%) [2, 4]: (1.6) %
Treatment delays ≤9 days, cycles (%) [2, 4]: (6.3) %
Discontinuation of study treatment for adverse event, (%) ([2]; intention-to-treat): (8.5) %
Discontinuation of study treatment for adverse event, no. ([2]; intention-to-treat, N = 377 mitoxantrone, N = 378 cabazitaxel): 32
Abdominal Pain Grade 1-4, (%) ([2]; percent of patients of n = 371): (6%)
Alopecia Grade 1-4, (%) ([2]; percent of patients of n = 371): (5%)
Anorexia Grade 1-4, (%) ([2]; percent of patients of n = 371): (11%)
Anorexia Grade 3-4, (%) ([2]; percent of patients of n = 371): (<1%)
Arrhythmia Grade 1-4, (%) ([2]; percent of patients of n = 371): (2%)
Arrhythmia Grade 3-4, (%) ([2]; percent of patients of n = 371): (<1%)
Arthralgia Grade 1-4, (%) ([2]; percent of patients of n = 371): (8%)
Arthralgia Grade 3-4, (%) ([2]; percent of patients of n = 371): (1%)
Asthenia Grade 1-4, (%) ([2]; percent of patients of n = 371): (12%)
Asthenia Grade 3-4, (%) ([2]; percent of patients of n = 371): (2%)
Back Pain Grade 1-4, (%) ([2]; percent of patients of n = 371): (12%)
Back Pain Grade 3-4, (%) ([2]; percent of patients of n = 371): (3%)
Bone Pain Grade 1-4, (%) ([2]; percent of patients of n = 371): (5%)
Bone Pain Grade 3-4, (%) ([2]; percent of patients of n = 371): (2%)
Constipation Grade 1-4, (%) ([2]; percent of patients of n = 371): (15%)
Constipation Grade 3-4, (%) ([2]; percent of patients of n = 371): (<1%)
Cough Grade 1-4, (%) ([2]; percent of patients of n = 371): (6%)
Dehydration Grade 1-4, (%) ([2]; percent of patients of n = 371): (3%)
Dehydration Grade 3-4, (%) ([2]; percent of patients of n = 371): (<1%)
Diarrhea Grade 1-4, (%) ([2]; percent of patients of n = 371): (11%)
Diarrhea Grade 3-4, (%) ([2]; percent of patients of n = 371): (<1%)
Dizziness Grade 1-4, (%) ([2]; percent of patients of n = 371): (6%)
Dizziness Grade 3-4, (%) ([2]; percent of patients of n = 371): (<1%)
Dysgeusia Grade 1-4, (%) ([2]; percent of patients of n = 371): (4%)
Dyspepsia Grade 1-4, (%) ([2]; percent of patients of n = 371): (2%)
Dyspnea Grade 1-4, (%) ([2]; percent of patients of n = 371): (4%)
Dyspnea Grade 3-4, (%) ([2]; percent of patients of n = 371): (<1%)
Dysuria Grade 1-4, (%) ([2]; percent of patients of n = 371): (1%)
Fatigue Grade 1-4, (%) ([2]; percent of patients of n = 371): (27%)
Fatigue Grade 3-4, (%) ([2]; percent of patients of n = 371): (3%)
Febrile Neutropenia Grade 1-4, (%) ([2]; percent of patients of n = 371): (1%)
Febrile Neutropenia Grade 3-4, (%) ([2]; percent of patients of n = 371): (1%)
Headache Grade 1-4, (%) ([2]; percent of patients of n = 371): (5%)
Hematuria Grade 1-4, (%) ([2]; percent of patients of n = 371): (4%)
Hematuria Grade 3-4, (%) ([2]; percent of patients of n = 371): (<1%)
Hypotension Grade 1-4, (%) ([2]; percent of patients of n = 371): (2%)
Hypotension Grade 3-4, (%) ([2]; percent of patients of n = 371): (<1%)
Mucosal Inflammation Grade 1-4, (%) ([2]; percent of patients of n = 371): (3%)
Mucosal Inflammation Grade 3-4, (%) ([2]; percent of patients of n = 371): (<1%)
Muscle Spasms Grade 1-4, (%) ([2]; percent of patients of n = 371): (3%)
Musculoskeletal Pain Grade 1-4, (%) ([2]; percent of patients of n = 371): (5%)
Musculoskeletal Pain Grade 3-4, (%) ([2]; percent of patients of n = 371): (<1%)
Nausea Grade 1-4, (%) ([2]; percent of patients of n = 371): (23%)
Nausea Grade 3-4, (%) ([2]; percent of patients of n = 371): (<1%)
Pain Grade 1-4, (%) ([2]; percent of patients of n = 371): (5%)
Pain Grade 3-4, (%) ([2]; percent of patients of n = 371): (2%)
Pain in Extremity Grade 1-4, (%) ([2]; percent of patients of n = 371): (7%)
Pain in Extremity Grade 3-4, (%) ([2]; percent of patients of n = 371): (1%)
Peripheral Edema Grade 1-4, (%) ([2]; percent of patients of n = 371): (9%)
Peripheral Edema Grade 3-4, (%) ([2]; percent of patients of n = 371): (<1%)
Peripheral Neuropathy Grade 1-4, (%) ([2]; percent of patients of n = 371): (3.2%)
Peripheral Neuropathy Grade 3-4, (%) ([2]; percent of patients of n = 371): (<1%)
Pneumonia Grade 1-4, (%) ([2]; percent of patients of n = 371): (1%)
Pneumonia Grade 3-4, (%) ([2]; percent of patients of n = 371): (<1%)
Pyrexia Grade 1-4, (%) ([2]; percent of patients of n = 371): (6%)
Pyrexia Grade 3-4, (%) ([2]; percent of patients of n = 371): (<1%)
Urinary Tract Infection Grade 1-4, (%) ([2]; percent of patients of n = 371): (3%)
Urinary Tract Infection Grade 3-4, (%) ([2]; percent of patients of n = 371): (1%)
Vomiting Grade 1-4, (%) ([2]; percent of patients of n = 371): (10%)
Weight Decreased Grade 1-4, (%) ([2]; percent of patients of n = 371): (8%)
Weight Decreased Grade 3-4, (%) ([2]; percent of patients of n = 371): (<1%)
Anemia Grade 1-4, (%) [2, 5]: (82%)
Anemia Grade 3-4, (%) [2, 5]: (5%)
Leukopenia Grade 1-4, (%) [2, 5]: (93%)
Leukopenia Grade 3-4, (%) [2, 5]: (42%)
Neutropenia Grade 1-4, (%) [2, 5]: (87%)
Neutropenia Grade 3-4, (%) [2, 5]: 58.0%
Thrombocytopenia Grade 1-4, (%) [2, 5]: (43%)
Thrombocytopenia Grade 3-4, (%) [2, 5]: (2%)
Neutropenia Grade 3-4, (%) ([2]; percent of patients, laboratory values, cabazitaxel: n = 369, mitoxantrone: n = 370, listed as Mitoxantrone): (58%)
Discontinuation of study treatment for disease progression, (%) [3]: (70.8) %
Discontinuation of study treatment for disease progression, no. ([3]; N = 377 mitoxantrone, N = 378 cabazitaxel): 267
Overall survival Median ([3]; 25 mg/m^2 cabazitaxel or 12 mg/m^2 mitoxantrone every 3 weeks with prednisone): 12.7 months
PFS Median ([3]; earliest progression in tumor, PSA or pain): 1.4 months
